According to PMC8541353, “A Novel Phenylpyrrolidine Derivative: Synthesis and Effect on Cognitive Functions in Rats with Experimental Ishemic Stroke” (Molecules, 2021):

Key:
Assay type in all cases: in vivo, Wistar rats
rats with MCAO [1] = assay: Beam walking test (BWT) after MCAO; set-up: key to Left forelimb score / Right forelimb score / Left hindlimb score / Right hindlimb score: score = errors + 0.5 × slides × 100/total number of steps; conditions: for Animals that failed to train for the BWT test: after MCAO, days 12–14; for Left forelimb score / Left hindlimb score / Right forelimb score / Right hindlimb score: day 14 after MCAO, mean ± SD
Protocol: (§1) A MCAO animal model was used to characterize the effects of compound 1 on the development and resolution of stroke. At the baseline, we performed the MRI and hole-board test before MCAO surgery. Once animals recovered after the surgery, we stratified them based on their background psycho-emotional status and performed a control MRI to access whether the occlusion was sufficient or not. […] From 24 h to day 7, the neurological status was assessed daily according to the neurological scale (mNSS). By the end of day 7, animals underwent MRI. In addition, MRI was performed on days 14 and 28 (Shceme 3)The hole-board test was repeated on days 10 and 24. The degree of motor function impairment, the deficit of exploratory behavior, and the recovery process were assessed in the beam walking test (BWT), which was performed twice on days 12 and 14. An open field test was carried out on days 16 and 26.
The increased locomotor activity, expanded orientational research activity, and reduced anxiety and depressive behavior in rats treated with compound 1 highlighted the possible benefits of the compound in post-ischemic stroke management. As stroke affects not only locomotor activity but also the cognitive behavior, we conducted an additional beam walking test. It is proven that depression and anxiety in the post-stroke period increase the risk of mortality and affect the functional recovery of patients. There is a direct relationship between the severity of cognitive deficits, patients’ survival, and their successful social integration. Conventionally, BWT is aimed at finding motor deficits on the contralateral side of the brain lesion. However, based on the test methodology, which was testing animals before surgery and on the 12th–14th days after surgery, we can indirectly conclude whether the memory trace is preserved or lost. […] Most of the animals from the saline group sat still and one rat fell. Since the hippocampus, which is a structure responsible for the formation of both […] and long-term memory, is involved in the pathological process of ischemia, in rats, we hypothesized that the ability to reproduce and form a memorable trace can be also affected in our MCAO model. According to MRI data, the hippocampus was indeed affected by MCAO. Thus, compound 1 possibly helped to restore neural connections in the hippocampus as quickly as possible.
(§2) In the first experimental series, the following test systems were used: HBT (OpenScience, Russia), OFT (OpenScience), and LDT (OpenScience). The design for the second experimental series was as follows. All rat behavioral changes were evaluated during the four weeks after stroke simulation. Individuals who performed these procedures were double-blinded. General neurological disorders were assessed using the modified neurological severity score (mNSS). Motor and cognitive impairment were evaluated using the following functional tests: BWT (OpenScience), HBT (OpenScience), and OFT (OpenScience). The BWT was performed between postoperative days 12 and 14. In this test, motor dysfunction in all four limbs was evaluated; specifically, the number of steps, errors, and slides were counted. The overall score was calculated using the following formula: score = errors + 0.5 × slides × 100/total number of steps [47]. The beam apparatus consists of 165 cm beams with a flat surface of 10 mm or 6 mm width, resting 100 cm above the table top on two poles. A black box is placed at the end of the beam as the finish point. Nesting material from home cages is placed in the black box to attract the rat to the finish point. A lamp (with 60-watt light bulb) is used at the start to stimulate the animals to move towards the end.

rats with MCAO [2] = assay: Neurological deficit (mNSS) in MCAO model; conditions: 24 h to day 7
Protocol: as §1, with “26. […]” for “26.”
In the first experimental series, the following test systems were used: HBT (OpenScience, Russia), OFT (OpenScience), and LDT (OpenScience). […] All rat behavioral changes were evaluated during the four weeks after stroke simulation. […] General neurological disorders were assessed using the modified neurological severity score (mNSS). Motor and cognitive impairment were evaluated using the following functional tests: BWT (OpenScience), HBT (OpenScience), and OFT (OpenScience). […]

intact animals [3] = assay: Light-dark box test (LDB) in intact animals; conditions: intact rats, day 8; compound 1 125 mg kg^−1, piracetam 300 mg kg^−1, intraperitoneally for 5 days; mean and SD
Text: (§3) Before the study, the intact animals were subjected to the hole-board test (HBT), weighed, and stratified into three uniform groups in terms of orientational/exploratory activity and weight. […] On day 7, we performed OFT (open field test), followed by LDB (light—dark box test) on day 8 (Scheme 3, Step 1). These tests assess the activity and describe the behavior of the animals. According to OFT, compound 1 decreased the vertical activity and the immobility time compared to the saline-treated group (Table 2).
(§4) Before conducting the experiments, the animals underwent the HBT and were allocated to groups based on their behavior score and weight. Kullback–Leibler divergence method for allocation based on two numerical parameters was used for allocation. We used a sum score for behavior tests and weight. Subsequently, two experimental series were performed. In the first series, rat behavior without stroke modeling after injection of compound 1 (experimental group, n = 10) or saline (control group, n = 10) was evaluated (Scheme 3a). […] Compound 1 was injected at a dose of 125 mg kg^−1 and an injection volume of 0.5 mL. […] For the experiments, the following predetermined exclusion criteria were used: (1) incomplete MCAO indicated by an incomplete lesion on magnetic resonance imaging (MRI) after 24 h [n = 4]and (2) post-operative weight loss of > 20% and severe animal condition within the first post-stroke 48 h [n = 3]. Animals reached humane endpoints based on the absence of nociceptive reflex withdrawal responses, hypothermia, and heart rate reduction to 100–150 beats min^−1. As steroid treatment could have influenced the experiment, rats were humanely euthanized according to the ethical protocol. The experiment design is presented in Scheme 3b.
as §2

intact animals [4] = assay: Open field test (OFT) in intact animals; conditions: intact rats, day 7; compound 1 125 mg kg^−1, piracetam 300 mg kg^−1, intraperitoneally for 5 days; mean and SD
Text: as §3, §4, §2

Compound | Animals that failed to train for the BWT test (rats with MCAO [1]) | Left forelimb score (rats with MCAO [1]) | Left hindlimb score (rats with MCAO [1]) | Right forelimb score (rats with MCAO [1]) | Right hindlimb score (rats with MCAO [1]) | Regression of neurological symptoms (rats with MCAO [2]) [%] | Number of crossings (n) (intact animals [3]) | Number of peeking out events (n) (intact animals [3]) | Time spent in the light compartment (intact animals [3]) [s] | Crossings (n) (intact animals [4]) | Grooming time (intact animals [4]) [s] | Immobility duration (intact animals [4]) [s] | Number of center sector crossings (center) (n) (intact animals [4]) | Vertical activity (n) (intact animals [4])
O=C(CN1CC(c2ccccc2)CC1=O)NCCS(=O)(=O)[O-].[K+] (stereo not shown) [Compound 1, potassium 2-[2-(2-oxo-4-phenylpyrrolidin-1-yl)acetamido]ethane-1-sulfonate] | No animals failed | 42.2 ± 28.0 | 28.8 ± 15.3 | 11.6 ± 13.8 | 45.8 ± 30.4 | 35 | 2.9 ± 1.2 | 5.2 ± 2.8 | 16.5 ± 8.3 | 53.7 ± 10.3 | 40.6 ± 33.2 | 12.8 ± 8.4 | 1.6 ± 0.6 | 10.3 ± 4.3
NC(=O)CN1CCCC1=O [Piracetam, reference compound] | more than half of the animals and five | 32.8 ± 26.4 | 24.8 ± 22.2 | 12.4 ± 16.0 | 36.0 ± 30.4 | 25 | 3.7 ± 1.6 | 4.8 ± 2.5 | 26.3 ± 13.4 | 65.4 ± 20.4 | 14.4 ± 9.4 | 16.0 ± 10.4 | 1.4 ± 1.2 | 15.9 ± 7.5
